Usually solubility stands for the concentration that dissolves in the medium under given conditions. One may read the solubility (thermodynamic) as the concentration in solution at equilibrium with solid.

Consider 2 molecules from patent US20260166021A1, “POLYMORPHIC FORMS OF A SOLUBLE EPOXIDE HYDROLASE INHIBITOR AND FORMULATIONS THEREOF” (EicOsis, LLC, priority 2022, published 2026).

Holding throughout (assay type): physicochemical
A short description of series [1]: Solubility of Form C in binary solvent systems (TABLE 22).
The nature of series [2]: Equilibrium-solubility screening in solvents and excipients. How it is done: For these analyses, Form D or Form C was mixed with 0.5 or 1.0 mL of solvents and equilibrated for approximately 24 hours. The mixture was filtered through 0.45 μm centrifuge filters.
As expected, the compound was not easily ionized at physiologically relevant pH. […] In addition, these excipients included surfactants, co-solvents, and lipids which are amenable for use in self-emulsifying drug delivery systems (SEDDS). The XRD pattern of the starting material was maintained for each sample after equilibrium.

Series [3] is described as follows: Supersaturation monitoring in PEG 300. Particulars: PEG 300 (0.5 mL).
A short description of series [4]: Thermal stress studies at 60° C. (XRD, HPLC). Conditions: incubated at 60° C., in less than 1 day. How it is done:
Briefly, 20 mg of solid Form A, B, C, D, E, F, G, and I were weighed into 7 mL glass vials. The vials were covered with tissue and stored in ovens set to 60° C. and ambient pressure. Following 1 and 7 days incubation, solid was collected for XRD analysis.
As shown in these figures, Forms B and C converted to Forms D and A, respectively, while the other forms remained unchanged.
The starting materials, intermediates (1 day of thermal stress), and products (7 days of thermal stress) were analyzed by H PLC. Representative chromatograms from the Form D thermal stress analyses are shown in FIGS. 81-83 (starting material, 1 day, and 7 day samples, respectively).

Series [5] in a line: Competitive slurry experiments (solvent-mediated polymorph transformation, XRD). Particulars: room temperature, water, MTBE or n-heptane, 1 and 7 days, listed as Pattern C. How it is done: Polymorph stability and interconversions were analyzed with competitive slurry experiments. The competitive slurry (solvent-mediated transformation) experiments were performed on Forms A, B, D, E, F, G, and I generated through scaled-up crystallization (summarized in TABLE 11). […] The suspensions were aliquoted at one day and seven days and filtered to isolate the solids. Remaining solid was analyzed by XRD without drying.
In FIG. 66, the second spectrum from the top corresponds to Form E. These XRD data confirmed that Patterns C, K, and D were afforded in these solvents.
In order to further confirm the rank of stability order of the selected forms and extend the temperature range of stability relationship up to 70° C. covering potential API process conditions, binary form slurries were conducted with starting mixtures of (1) Forms A and D, and (2) Forms D and E. The resultant polymorphs were characterized with XRD after 1 and 7 days, the results of which analyses are shown in FIGURE S 67-68 and summarized in TABLE 13. Pattern D stood out from both binary mixture slurries of A & D and of D & E after seven-day stirring at the elevated temperature.
Additional single form slurry experiments were conducted on Forms A, D, and E in either water or heptane at room temperature. […] In agreement with prior competitive slurry experiments, Form D was stable at room temperature in n-heptane. Pattern E was obtained from slurries starting with Forms A and E in n-heptane. As expected, Form C was formed from the Pattern E slurry in water.

Series [6] is described as follows: PEG-stability analyses: Form C/Form D mixture slurried in PEG300 with water. Particulars: 1:1 mixture of Forms C and D slurried in PEG300; XRD. How it is done: Of particular interest was whether Form D would convert to a hydrate (e.g., Form C) in the presence of water. To investigate the critical water concentration for phase interconversion between Pattern C and D, a series experiments were designed (as summarized in TABLE 16). A 1:1 mixture of Forms C and D was prepared and slurried in PEG 300 with different levels of water concentrations. Phase transformations were monitored with XRD, and are summarized in FIG. 85, which (from top to bottom) provides XRD of Form C, Form D, the mixture following incubation in PEG300 containing 75% water, the mixture following incubation in PEG300 containing 50% water, the mixture following incubation in PEG300 containing 25% water, the mixture following incubation in PEG300 containing 10% water, and the mixture following incubation in PEG300 containing 5% water. […] Form D is the stable form in PEG300 with less than 50% water.

Series [7] in a line: Kinetic solubility in sodium lauryl sulfate (SLS) 60 mM, with XRD of remaining solid. Particulars: room temperature. How it is done: The mixture was stirred at room temperature with astir bar. The samples (n=3) were collected at each predetermined time points (5, 10, 15, 20, 30, 60, 90, 120, and 180 minutes) and centrifuged. The filtrate was analyzed by H PLC to determine solubility, and the remaining solid was analyzed by XRD as appropriate. Three replicates were performed for each condition.
The advantages of achieving higher degree of supersaturation from milled material (by providing larger surface area) and amorphous material (by providing higher solubility) were offset by phase transformation from Form D to Pattern C (i.e. hydrate form).
In each figure, the top spectrum corresponds to pure Form C, the second figure from the top of the figure corresponds to pure Form D, the third spectrum from the top of the figure corresponds to solid collected following 5 minutes of solubilization, the fourth spectrum from the top corresponds to solid collected following 60 minutes of solubilization, the fifth spectrum from the top corresponds to solid collected following 90 minutes of solubilization, and the bottom spectrum corresponds to solid collected following 180 minutes of solubilization. As indicated by these XRD data, the milled and amorphous materials were converted into Pattern C within 5 min after exposure to the dissolution medium. […]

Series [8] is described as follows: Bulk and tapped density (tap density tester). An excerpt:
Before milling, Form D was screened through a 30-micron mesh sieve. Then, Form D micronized using a 2-inch jet mill 70 psig feed pressure, 40 psig grinding pressure, and a 4.3 g/min powder feed rate. The micronization process provided a 69% yield and 95.6% crystallinity relative to the unmilled material.

≈ marks a conversion by molar mass, not a printed value.

For the molecule `CC[C@H](C)C(=O)N1CCC(NC(=O)Nc2ccc(OC(F)(F)F)c(F)c2)CC1` [Form C, (S)-1-(3-fluoro-4-(trifluoromethoxy)phenyl)-3-(1-(2-methylbutanoyl)piperidin-4-yl)urea], the solubility is 5000 µg/mL in series [1] (IPA/n-heptane, ratio of n-heptane to primary 21.3, organic solvent or mixture); 38000 µg/mL in series [1] (ethanol/n-heptane, organic solvent or mixture, EtOH, ratio of n-heptane to primary 7.7 (1st test point)); 10000 µg/mL in series [1] (ethanol/n-heptane, organic solvent or mixture, EtOH, ratio of n-heptane to primary 13.2 (2nd test point)); 7000 µg/mL in series [1] (ethyl acetate/n-heptane, organic solvent or mixture, EtoAC, ratio of n-heptane to primary 1.4 (1st test point)); 4000 µg/mL in series [1] (ethyl acetate/n-heptane, organic solvent or mixture, EtoAC, ratio of n-heptane to primary 2.0 (2nd test point)); 3000 µg/mL in series [1] (ethyl acetate/n-heptane, organic solvent or mixture, EtoAC, ratio of n-heptane to primary 2.2 (3rd test point)). Also, the solubility amounted to 30000 µg/mL in series [1] (organic solvent or mixture, IPA, ratio of n-heptane to primary 13.3 (1st test point)); 10000 µg/mL in series [1] (organic solvent or mixture, IPA, ratio of n-heptane to primary 13.9 (2nd test point)); 11000 µg/mL in series [1] (organic solvent or mixture, MEK, ratio of n-heptane to primary 2.0 (1st test point)); 5000 µg/mL in series [1] (organic solvent or mixture, MEK, ratio of n-heptane to primary 3.0 (2nd test point)); 4000 µg/mL in series [1] (organic solvent or mixture, MEK, ratio of n-heptane to primary 3.4 (3rd test point)). The “XRD Pattern At Equilibrium” value was “Form C” in series [2] (PEG 300, 50%); “Form D” in series [2] (PEG 300, 100%); “Form C” in series [2] (PEG 400, 50%); “Form D” in series [2] (PEG 400, 100%). In series [2] (PEG 300, 50%, aqueous with cosolvent or surfactant or cyclodextrin, thermodynamic from solid), this molecule registered a solubility (thermodynamic) at 24 h of 800 µg/mL (≈ 1970 µM). In addition, the “Equilibrium Solubility” value in series [2] (PEG 300, 100%) is 16700 µg/mL; in series [2] (PEG 400, 50%), 400 µg/mL; in series [2] (PEG 400, 100%), 17900 µg/mL. In addition, the “Step → Observation” value in series [3] (100 mg/mL, 1. RT stirring for 1 hr, listed as Pattern C) was 1. RT stirring for 1 hr →suspension; in series [3] (100 mg/mL, 2. 40 C. heating for 0.5 hr, listed as Pattern C), 2. 40 °C heating for 0.5 hr →clear solution; in series [3] (100 mg/mL, 3. RT storage for ~8 days, listed as Pattern C), 3. RT storage for ~8 days →clear solution; in series [3] (100 mg/mL, 4. RT storage for ~9 days, listed as Pattern C) it was 4. RT storage for ~9 days →precipitation; in series [3] (200 mg/mL, 1. RT stirring for 1 hr), 1. RT stirring for 1 hr →suspension; in series [3] (200 mg/mL, 2. 40 C. heating for 48 hr, listed as Pattern C), 2. 40 °C heating for 48 hr →suspension. For the same molecule, the “Step → Observation” value in series [3] (200 mg/mL, 3. 55 C. heating for <16 hr) is given as 3. 55 C. heating for <16 hr →clear solution; in series [3] (200 mg/mL, 4. RT storage for <3.5 days), 4. RT storage for <3.5 days →precipitation; in series [3] (200 mg/mL, 5. 55 C. reheating for overnight), 5. 55 C. reheating for overnight →clear solution; in series [3] (200 mg/mL, 6. RT storage for overnight), 6. RT storage for overnight →precipitation. In addition, the “conversion to Form A” value in series [4] is 100%. In addition, the “polymorph stability in competitive slurry” value in series [5] is “unstable hydrate”. In addition, the “stable form in PEG300 with 50% or higher water content” value in series [6] was “more stable”.
Take `CC[C@H](C)C(=O)N1CCC(NC(=O)Nc2ccc(OC(F)(F)F)c(F)c2)CC1` [unmilled Form D, (S)-1-(3-fluoro-4-(trifluoromethoxy)phenyl)-3-(1-(2-methylbutanoyl)piperidin-4-yl)urea]: the “time to full transition to the hydrate form (Form C)” value in series [7] was found to be 60 min. In series [8], this molecule had a bulk density of 0.54 g/mL and a tapped density of 0.61 g/mL.
